According to PMC9881724, “Rational design of potent ultrashort antimicrobial peptides with programmable assembly into nanostructured hydrogels” (Frontiers in Chemistry, 2023):
In brackets after ≈: the same amount, converted by molar mass. Residues, ends and D or L forms follow the SMILES beside them. *: point of attachment. Fmoc = O=C(OCC1c2ccccc2-c2ccccc21)*

Columns and labels:
Assay type in all cases: cell-based
E. faecium = details: 1 h
Description: Minimal inhibitory concentration (MIC) assays were performed following a standard broth dilution procedure ([Wiegand et al., 2008]) in which bacteria were grown in MHB and fungal in SB overnight. The overnight bacterial suspension was adjusted to 10^6 CFU/ml in broth according to MacFarlane standard. Bacterial solutions were mixed in 96-well plates with the peptide solution to reach final concentrations of peptides ranging from 1,082 to 2 μM, including inhibition control (Indolicidin), growth control, and sterility control. Within each MIC experiment, each peptide was tested in triplicate across this concentration range and repeated on 3 independent days. Media and glassware were sterilized at 120°C for 1 h with an autoclave prior to all bioassays.

[1] = tested on: C. auris Fluconazole resistant; assay: Fluorescence assisted cell sorting (FACS) live/dead assay; details: overnight 36-37°C, SYTO 9/propidium iodide
Description: (§1) FACS assay was performed following the LIVE/DEAD™ BacLight™ Bacterial Viability Kit (L7012) instructions and stablished procedures ([Berney et al., 2007]; [Robertson et al., 2019]), in which bacteria were grown in Mueller Hinton Broth and fungal in Sabouraud Broth overnight to a late–log phase. Then, 900 μl of the cell suspension was added to 100 μl of five different concentrations of peptides solution and incubated overnight at 36°C–37°C. On the next day, the suspension was centrifuged at 10,000 × g for 10 min and the supernatant fraction was removed from the samples. The pellets were resuspended with 1 ml of PBS buffer and incubated at room temperature for 1 h, mixing every 15 min. The sample was centrifuged at 10,000 × g for 10 min, the supernatant removed followed by the resuspension of the pellet in 1 ml of PBS. The washing steps were repeated twice. To perform the staining of the cells, equal volumes of SYTO® 9 and propidium iodide were combined in a microfuge tube and 3 µl of the dye mixture was added to each microbial suspension. The sample was incubated at room temperature in the dark for 15 min. The evaluation of cell viability was performed through the calculation of the red to green fluorescence ratio to determine the proportion of live cells in a sample.

E. coli = assay: as above; details: overnight 36-37°C, SYTO 9/propidium iodide
Description: as §1

[2] = tested on: S. aureus Methicillin resistant; assay: as above; details: overnight 36-37°C, SYTO 9/propidium iodide
Description: as §1

**Q.** Which “MIC E. faecium” value (E. faecium) does the source give for `N=C(N)NCCC[C@H](NC(=O)[C@H](CCCNC(=N)N)NC(=O)[C@H](Cc1c[nH]c2ccccc12)NC(=O)[C@@H]1CCCN1C(=O)[C@H](Cc1c[nH]c2ccccc12)NC(=O)OCC1c2ccccc2-c2ccccc21)C(N)=O` [P-Priscilicidin, Fmoc-WPWRR-NH2] (Fmoc-WPWRR-NH2) here?
**A.** 61 µM (≈ 62.3 µg/mL)

**Q.** What about the Dead % ([1]; 12 µM peptide) of the same compound?
**A.** 33%

**Q.** And the Live % ([1]; 12 µM peptide)?
**A.** 67%

**Q.** And the Dead % ([1]; 24 µM peptide)?
**A.** 95%

**Q.** What about the Live % ([1]; 24 µM peptide) of the same compound?
**A.** 4%

**Q.** And the Dead % ([1]; 49 µM peptide)?
**A.** 98%

**Q.** And the Live % ([1]; 49 µM peptide)?
**A.** 2%

**Q.** What about the Dead % ([1]; 98 µM peptide) of the same compound?
**A.** 98%

**Q.** And the Live % ([1]; 98 µM peptide)?
**A.** 1%

**Q.** And the Dead % ([1]; 196 µM peptide)?
**A.** 98%

**Q.** And the Live % ([1]; 196 µM peptide)?
**A.** 2%

**Q.** What about the Dead % (E. coli; 12 µM peptide) of the same compound?
**A.** 2%

**Q.** What about the Live % (E. coli; 12 µM peptide) of the same compound?
**A.** 93%

**Q.** And the Dead % (E. coli; 24 µM peptide)?
**A.** 33%

**Q.** And the Live % (E. coli; 24 µM peptide)?
**A.** 57%

**Q.** What about the Dead % (E. coli; 49 µM peptide) of the same compound?
**A.** 48%

**Q.** And the Live % (E. coli; 49 µM peptide)?
**A.** 33%

**Q.** And the Dead % (E. coli; 98 µM peptide)?
**A.** 44%

**Q.** And the Live % (E. coli; 98 µM peptide)?
**A.** 35%

**Q.** What about the Dead % (E. coli; 196 µM peptide) of the same compound?
**A.** 89%

**Q.** And the Live % (E. coli; 196 µM peptide)?
**A.** 2%

**Q.** And the “FACS minimum concentration showing over 90% dead microbes, E. coli” value (E. coli)?
**A.** 196 µM

**Q.** What about the Dead % ([2]; 12 µM peptide) of the same compound?
**A.** 5%

**Q.** And the Live % ([2]; 12 µM peptide)?
**A.** 95%

**Q.** And the Dead % ([2]; 24 µM peptide)?
**A.** 7%

**Q.** And the Live % ([2]; 24 µM peptide)?
**A.** 95%

**Q.** What about the Dead % ([2]; 98 µM peptide) of the same compound?
**A.** 83%

**Q.** What about the Live % ([2]; 98 µM peptide) of the same compound?
**A.** 19%

**Q.** And the Dead % ([2]; 196 µM peptide)?
**A.** 97%

**Q.** And the Live % ([2]; 196 µM peptide)?
**A.** 4%

**Q.** What about the “FACS minimum concentration showing over 90% dead microbes, S. aureus Methicillin resistant” value [2] of the same compound?
**A.** 196 µM
